# Measured values taken from US20160193291A1, “METHOD OF REGULATING NEURONAL AXON ELONGATION” (RIKEN, priority 2012, published 2016).
# What was measured:
# Format in all cases: cell-based, chick (Gallus gallus)
# [1] = system: growth cones of DRG neurons; test: Growth cone collapse assay (growth cone surface area)
# Protocol: Dissociated DRG neurons from embryonic day 7-9 chicks were cultured for at least 12 h in an F-12 medium (Invitrogen) containing 50 ng/ml NGF. […] Subsequently, the culture medium was changed to BSS buffer. […] In experiments using epoxomicin, the cells were treated with […] epoxomicin for 15 min before the addition of […] Sema3A.
# The growth cone area was defined as a hand-like region extending from a distal part of a neurite to a growth cone neck whose width is equal to the width of the neurite. The width of each neurite was calculated by measuring the width of the neurite region at a location that was 30 μm apart from the distal part of each neurite. This calculation was adopted because the mean length of the control growth cone was less than 30 μm.
# DRG neurons = test: Neurite elongation (neurite length) of transfected DRG neurons; conditions: 15 min pretreatment with 10 μM EIPA
# [2] = system: growth cones of primary culture DRG neurons; test: Endocytosis of Alexa Fluor dextran (macropinocytosis) in growth cones
# [3] = system: Syx1B protein in growth cones; test: Immunocytochemistry of Syx1B protein in growth cones; conditions: for protein level of Syx1B normalized to that of SNAP25 in the growth cones: 10 min treatment
# Protocol: After Sema3A or vehicle treatment, the cells were fixed with 4% PFA for 1 h at 37° C., followed by permeabilization with 0.3% Triton X-100 in PBS for 2 min at a room temperature.
# The cells were then immediately washed three times with a blocking solution (1% BSA and 0.1% Triton X-100 PBS), followed by incubation with the blocking solution for 1 h at a room temperature, and were then incubated in the presence of anti-Syx1B (0.5 μg/ml) and anti-synaptosomal-associated protein 25 (SNAP25) antibody (1:500 dilution, clone SM-81; Sternberger Monpclonals) for 2 h at a room temperature. Immunofluorescence signals were visualized by incubation with Alexa Fluor 488-labeled donkey anti-rabbit antibody (Invitrogen) and Alexa Fluor 594-labeled donkey anti-mouse antibody (Invitrogen). The integrated fluorescence intensity of Syx1B in the growth cones was normalized to that of the SNAP 25 protein.
# [4] = 15 min pretreatment with 10 μM EIPA
# [5] = 15 min pretreatment with 100 μM EIPA
compound,measurement,setting,value
"CCN(c1nc(N)c(C(=O)N=C(N)N)nc1Cl)C(C)C [EIPA, 5-(N-ethyl-N-isopropyl)amiloride]",effect on Sema3A-induced growth cone collapse,[1]; [4],suppressed
same,effect on Syx1B knockdown-mediated growth cone collapse,[1]; [4],reversed
same,effect on neurotoxin C1-induced reduction in growth cone surface area,[1]; [5],blocked
same,effect on Syx1B knockdown-mediated reduced neurite elongation,DRG neurons,reversed
same,effect on Sema3A-induced uptake of Alexa Flour 594-dextran,[2]; [4],suppressed
same,effect on Syx1B knockdown-mediated accumulation of Alexa Fluor 594-dextran,[2]; [4],reversed
same,effect on neurotoxin C1-induced uptake of Alexa Fluor 594-dextran,[2]; [5],blocked
"O=c1cc(N2CCOCC2)oc2c(-c3ccccc3)cccc12 [LY294002, 2-(4-morpholinyl)-8-phenyl-1 (4H)-benzopyran-4-one]",growth cone area,[1]; 10 min LY294002 treatment,induced reduction in growth cone area
same,macropinocytosis in the growth cones,[2]; 10 min LY294002 treatment,induced macropinocytosis
same,protein level of Syx1B normalized to that of SNAP25 in the growth cones,[3],significantly reduced
CC[C@H](C)[C@H](NC(=O)[C@H]([C@@H](C)CC)N(C)C(C)=O)C(=O)N[C@H](C(=O)N[C@@H](CC(C)C)C(=O)[C@@]1(C)CO1)[C@@H](C)O [epoxomicin],effect on Sema3A-induced suppression of Syx1B,[3]; 1 μM epoxomicin,suppressed
C/C1=C\[C@H](C)C[C@H](C)OC(=O)C[C@H](c2ccc(O)cc2)NC(=O)[C@@H](Cc2c(Br)[nH]c3ccccc23)N(C)C(=O)[C@H](C)NC(=O)[C@@H](C)C1 [jasplakinolide],growth cone morphology,[1],induces growth cone collapse-like morphological changes
same,protein level of Syx1B normalized to that of SNAP25 in the growth cones,[3],not decreased
